The text below walks through data of US7244557B2, “Method of screening modulators of Nod1 signaling” (Regents of the University of Michigan, priority 2003, dated 2007).

The test deals with T1, TLR2 (Homo sapiens, UniProt O60603).
T1 construct: expressed in transfected cells; host or cells: HEK293T
Description: NF-κB activation assay, cells expressing TLR2 or TLR2 with TLR1 and/or TLR6. Particulars: 1 μg/ml. Type of test: cell-based. The method, then:
A) Structure of purified PGN fraction from B. subtilis (GM3P) and synthetic PGN-related compounds used in the study. B) Structure of MDP and four copies of GlcNAc-MurNAc with attached L-Ala-γ-D-Gln (4 mer) are indicated by closed and dotted boxes, respectively. C) The ability of cells were transfected with 0.3 ng pcDNA3-NOD1-Flag, 0.1 ng pcDNA3-Nod2 (NOD2) or vector control and reporter pBxIV-luc and pEF-BOS-β-gal plasmids to activate NF-κB. D) The ability of synthetic peptides, iE-DAP and iQ-DAP to stimulate NF-κB activation in the presence of control vector (−) and plasmids encoding NOD1 wild-type, mutant NOD1 lacking LRRs (NOD1ΔLRR) and NOD2. E) The ability of iE-DAP, iQ-DAP and sBLP (1 μg/ml) to activate NF-κB.
Reagents. LPS from S. typhimurium, intact and alkaline-detoxified LPS from E. coli O55:B5 as well as purified lipid A preparations of E. coli F583, MDP, DAP and dsRNA were obtained from Sigma-Aldrich (St. Louis, Mo.). PGN from S. aureus was from Fluka-Chemie (Buchs, Germany). Palmitoyl-Cys ((RS)-2,3-di(palmitoyloxy)-propyl)-Ala-Gly) (sBLP), was obtained from Bachem (Torrance, Calif.). The tetrameric form of the disaccharide dipeptide was described previously (Inohara et al., J. Biol. Chem. 278:5509 [2003]). iE-DAP and iQ-DAP, M3P and M4P were synthesized as described (Kitaura et al., J. Med. Chem. 25:335 [1982]) with small modification. Purification of PGN from B. subtilis 168 and C. flaccumfaciens with hydrolases, Cellosyl or recombinant AtlE (amidase domain) and the fractionation and purification of reduced B. subtilis PGN digested with Cellosyl were performed as previously described (Heilman et al., Mol. Microbiol. 24:1013 [1997]; Atrih et al., J. Bact. 181:3956 [1999]). Removal of proteins and reduction of LPS fraction. E. coli O55:B5 LPS (Sigma) was treated with proteinase K at 37° C. for 12 hr to digest contaminating proteins. […] The amino acid composition of E. coli O55:B5 LPS was determined using AccQ·Tag amino acid analysis system (Waters, Milford, Mass.) after hydrolysis at 110° C. for 24 hr. […]

T1 sequence (O60603 21-784, species assumed): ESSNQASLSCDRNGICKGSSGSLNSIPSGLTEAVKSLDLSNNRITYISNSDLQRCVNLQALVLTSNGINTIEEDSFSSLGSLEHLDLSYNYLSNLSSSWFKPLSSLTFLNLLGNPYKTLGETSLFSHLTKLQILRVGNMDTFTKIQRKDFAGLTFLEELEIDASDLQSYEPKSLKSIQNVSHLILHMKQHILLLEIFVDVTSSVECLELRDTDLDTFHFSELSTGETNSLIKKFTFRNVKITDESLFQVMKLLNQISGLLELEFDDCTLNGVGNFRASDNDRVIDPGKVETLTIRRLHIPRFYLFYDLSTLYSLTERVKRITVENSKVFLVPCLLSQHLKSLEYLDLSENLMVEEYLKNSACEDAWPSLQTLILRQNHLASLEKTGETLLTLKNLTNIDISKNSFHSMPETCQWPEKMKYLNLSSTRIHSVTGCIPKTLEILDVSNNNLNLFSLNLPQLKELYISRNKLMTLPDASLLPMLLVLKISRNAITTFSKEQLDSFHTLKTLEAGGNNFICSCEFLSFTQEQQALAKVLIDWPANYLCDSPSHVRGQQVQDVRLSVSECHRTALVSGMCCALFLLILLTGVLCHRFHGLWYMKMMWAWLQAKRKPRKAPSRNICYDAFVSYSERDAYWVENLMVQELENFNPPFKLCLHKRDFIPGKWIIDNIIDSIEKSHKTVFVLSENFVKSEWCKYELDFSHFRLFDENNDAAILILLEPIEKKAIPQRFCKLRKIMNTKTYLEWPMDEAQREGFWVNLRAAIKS

On to “Palmitoyl-Cys ((RS)-2,3-di(palmitoyloxy)-propyl)-Ala-Gly) [synthetic lipoprotein]”, for which the “NF-κB activation via TLR2 or TLR2 co-expressed with TLR1 and/or TLR6” value is “activated TLR2”.

Regarding γ-D-Gln-DAP [iQ-DAP], the “NF-κB activation via TLR2 or TLR2 co-expressed with TLR1 and/or TLR6” value is on record as “not TLR2 or TLR2 co-expressed with TLR1 and/or TLR6”.

In the case of “γ-D-glutamy-meso-diaminopimelic acid [iE-DAP]”, the “NF-κB activation via TLR2 or TLR2 co-expressed with TLR1 and/or TLR6” value is reported as “not TLR2 or TLR2 co-expressed with TLR1 and/or TLR6”.
